From patent US12280045B2, “Antitumor agent and antitumor effect potentiator” (TAIHO PHARMACEUTICAL CO., LTD., priority 2017, dated 2025)

Key:
[1] = Percentage of body weight change in MC38 colon cancer cell transplant model; format: in vivo, mouse
Experimental: (§1) An electronic balance designed for animals was used for body weight measurement. A percentage of body weight change (BWCn) on day n was calculated from the body weight on day 1 (BW1) and the body weight (BWn) on day n using the following formula. Percentage of body weight change BWCn (%)=(BWn−BW1)/BW1×100
(§2) A methanesulfonic acid salt of compound 1 was pulverized with an agate mortar, and was prepared into a solution having a concentration of 5 mg/mL as its free form, using a solvent. The compound was then dissolved by sonication to prepare a 50 mg/kg dosing solution. The dosing solution was diluted with solvent to prepare a 25 mg/kg dosing solution, and a 12.5 mg/kg dosing solution. These dosing solutions were orally administered as compound 1, once daily in a dose of 12.5 mg/kg/day, 25 mg/kg/day, or 50 mg/kg/day, continuously for 21 days.
(§3) The anti-mouse PD-1 antibody was intraperitoneally administered in a dose of 0.05 mg/body on the first day (Day 1) of administration and on the 8th day since administration was started.
(§4) The medicinal agents shown in Table 1 were administered in the schedules, doses, and dosage forms shown in Table 1 (administered group No. 1 to No. 8).

[2] = system: tumor-associated macrophage; experiment: Fraction of tumor-associated macrophage in TIL, MC38 colon cancer cell transplant model (flow cytometry); format: in vivo, mouse
Experimental: MC38, a mouse colon cancer cell line, was provided by Dr. Yoshihiro Hayakawa (University of Toyama, Toyama, Japan). MC38 was cultured in RPMI 1640 medium containing 10% FBS. MC38 was subcultured in a 37° C., 5% CO2 incubator in a 1:3 to 1:5 ratio, one to two times a week.
A cell suspension of MC38 cells containing 2×10^6 cells/0.1 mL, was transplanted subcutaneously into a C57BL/6NJJcl mouse (CLEA Japan, Inc.), six weeks of age, in an area around the right last rib.
The tumor size was measured by measuring the major axis and minor axis of the tumor with a digimatic caliper, and TV was calculated using the following formula. TV (mm^3)=major axis (mm)×minor axis (mm)×minor axis (mm)/2 […]
The tumor was collected on the 10th day (Day 10) since administration was started, and a tumor suspension was prepared using a digestive enzyme treatment method. […] The isolated TILs were reacted with fluorescence-labeled anti-CD45 antibody, anti-CD90.2 (T cell marker) antibody, anti-CD11b (myeloid leukocyte marker) antibody, anti-Ly-6G (granulocytic bone marrow-derived suppressor cell marker) antibody, anti-Ly-6C (monocytic bone marrow-derived suppressor cell marker) antibody, and anti-F4/80 (macrophage marker) antibody, and the fraction of tumor-associated macrophage in TIL was calculated by fluorescence flow cytometry. […]

[3] = Percentage of body weight change in EMT6 breast cancer cell transplant model; format: in vivo, mouse; conditions: Compound 1 42 mg/kg p.o. q.d. Day 1-14 / PBS i.p.
Experimental: as §1
An electronic balance designed for animals was used for body weight measurement. A percentage of body weight change (BWCn) on day n was calculated in the same manner as in Example 1.
(§5) A methanesulfonic acid salt of compound 1 was pulverized with an agate mortar, and was prepared into a solution having a concentration of 4.2 mg/mL as its free form, using a solvent. The compound was then dissolved by sonication to prepare a 42 mg/kg dosing solution. The dosing solution was orally administered as compound 1, once daily in a dose of 42 mg/kg/day, continuously for 14 days.
The anti-mouse PD-1 antibody was intraperitoneally administered in a dose of 0.1 mg/body on the first day (Day 1) of administration, and on the 4th day (Day 4), the 8th day (Day 8), and the 11th day (Day 11) since administration was started.
The anti-mouse CTLA-4 antibody was intraperitoneally administered in a dose of 0.5 mg/body on the first day (Day 1) of administration, and after 4 days (Day 4), 8 days (Day 8), and 11 days (Day 11) from administration. […]

[4] = system: tumor-associated macrophage; experiment: Fraction of tumor-associated macrophage in TIL, EMT6 breast cancer cell transplant model (flow cytometry); format: in vivo, mouse
Experimental: EMT6, a mouse breast cancer cell line, was obtained from ATCC. EMT6 was cultured in Waymouth's MB752/1 medium containing 15% FBS. EMT6 was subcultured in a 37° C., 5% CO2 incubator in a 1:3 to 1:5 ratio, one to two times a week.
(§6) A cell suspension as a suspension of EMT6 cells in a 1:1 mixture of PBS and extracellular matrix component Matrigel was prepared, and the suspension, containing 1×10^4 cells/0.1 mL, was transplanted subcutaneously into a BALB/c mouse (Charles River Laboratories Japan Inc.), six weeks of age, in an area around the right last rib.
After 4 days from transplantation, the animals were divided into groups of 5 using a stratified random grouping method, using body weight as an index. The day the grouping was made (N=5) was designated as Day 1.
A methanesulfonic acid salt of compound 1 was pulverized with an agate mortar, and was prepared into a solution having a concentration of 4.2 mg/mL as its free form, using a solvent. […]
The tumor was collected on the 7th day (Day 7) since administration was started, and a tumor suspension was prepared using a digestive enzyme treatment method. […] The isolated TILs were reacted with fluorescence-labeled anti-CD45 antibody, anti-CD90.2 antibody, anti-CD11b antibody, anti-Ly-6G antibody, anti-Ly-6C antibody, and anti-F4/80 antibody, and the fraction of tumor-associated macrophage in TIL was calculated by fluorescence flow cytometry. […]

[5] = system: mouse breast cancer cell line EMT6; experiment: Antitumor effect (tumor volume) in EMT6 breast cancer cell transplant model; format: in vivo
Experimental: EMT6, a mouse breast cancer cell line, was obtained from American Type Culture Collection (ATCC). EMT6 was cultured in Waymouth's MB752/1 medium containing […]. EMT6 was subcultured in a 37° C., 5% CO2 incubator in a 1:3 to 1:5 ratio, one to two times a week.
as §6
(§7) The tumor size was measured by measuring the major axis and minor axis of the tumor with a digimatic caliper, and TV was calculated using the following formula. TV (mm^3)=major axis (mm)×minor axis (mm)×minor axis (mm)/2
The animals were divided into groups of 15 using a stratified random grouping method, using TV as an index. The day the grouping was made (N=15) was designated as Day 1.
as §5, with “days. […]” for “days.”

[6] = system: mouse colon cancer cell line MC38; experiment: Antitumor effect (tumor volume) in MC38 colon cancer cell transplant model; format: in vivo; conditions: for TV, DAY 22 MEAN ± S.E.: N=10
Experimental: MC38, a mouse colon cancer cell line, was provided by Dr. Yoshihiro Hayakawa (University of Toyama, Toyama, Japan). MC38 was cultured in RPMI 1640 medium containing 10% fetal bovine serum (FBS). MC38 was subcultured in a 37° C., 5% CO2 incubator in a 1:3 to 1:5 ratio, one to two times a week.
as §6, with “MC38” for “EMT6”, “phosphate-buffered saline (PBS)” for “PBS”, “1×10^6” for “1×10^4”, “C57BL/6NCrl” for “BALB/c”
as §7
The animals were divided into groups of 10 using a stratified random grouping method, using TV as an index. The day the grouping was made (N=10) was designated as Day 1.
as §2, §3, §4
A Dunnett's test (significance level 0.05) was conducted to analyze Day 22 TV for each group.

[7] = system: mouse MC38 tumor model; experiment: Dose finding of compound 1 in mouse MC38 tumor model; format: in vivo; conditions: orally administered once daily for 21 days
Experimental: An experiment was conducted with mouse MC38 tumor model. Tumor cells were cultured in vitro and transplanted subcutaneously into male mice, six weeks of age, in the right chest region, followed by daily administration of compound 1 and a control antibody. […] This dose (oral continuous administration of 50 mg/kg for 21 days, q.d.) is equivalent to the recommended dose of compound 1 in humans when administered alone.

Compound: CNC(=O)c1cc2c(Oc3ccc(NC(=S)NC(=O)Cc4ccccc4)cc3F)ccnc2cc1OC [Compound 1, 4-(2-fluoro-4-(3-(2-phenylacetyl)thioureido)phenoxy)-7-methoxy-N-methylquinoline-6-carboxamide]
- BWC22 MEAN ± S.E. ([1]; Compound 1 12.5 mg/kg p.o. q.d. Day 1-21 / PBS i.p.): 6.1 ± 0.7%
- BWC22 MEAN ± S.E. ([1]; Compound 1 25 mg/kg p.o. q.d. Day 1-21 / PBS i.p.): 5.0 ± 0.9%
- BWC22 MEAN ± S.E. ([1]; Compound 1 50 mg/kg p.o. q.d. Day 1-21 / PBS i.p.): −0.3 ± 0.9%
- Fraction of tumor-associated macrophage MEAN ± S.E. ([2]; Compound 1 25 mg/kg p.o. q.d. Day 1-9, tumor collected Day 10, N=5): 8.2 ± 2.3%
- fraction of tumor-associated macrophage versus control group (No. 1), result in words ([2]; Dunnett's test, significance level 0.05, doses as in Table 2): significantly smaller fractions of tumor-associated macrophage than control group
- BWC15 MEAN ± S.E. [3]: 3.2 ± 1.0%
- Fraction of tumor-associated macrophage MEAN ± S.E. ([4]; Compound 1 42 mg/kg p.o. q.d. Day 1-6, tumor collected Day 7, N=5): 20.3 ± 4.8%
- fraction of tumor-associated macrophage versus control group (No. 1), result in words ([4]; Dunnett's test, significance level 0.05, doses as in Table 4): significantly smaller fraction of tumor-associated macrophage than control group
- TV, DAY 15 MEAN ± S.E. ([5]; Compound 1 42 mg/kg p.o. q.d. Day 1-14 / PBS i.p. Day 1, 4, 8, 11, N=15): 312 ± 29 mm^3
- Day 15 TV versus control group (No. 1), result in words ([5]; Dunnett's test, significance level 0.05, doses as in Table 3): significantly smaller TVs than control group
- TV, DAY 22 MEAN ± S.E. ([6]; Compound 1 12.5 mg/kg p.o. q.d. Day 1-21 / PBS i.p. Day 1, 8): 1007 ± 161 mm^3
- TV, DAY 22 MEAN ± S.E. ([6]; Compound 1 25 mg/kg p.o. q.d. Day 1-21 / PBS i.p. Day 1, 8): 763 ± 50 mm^3
- TV, DAY 22 MEAN ± S.E. ([6]; Compound 1 50 mg/kg p.o. q.d. Day 1-21 / PBS i.p. Day 1, 8): 437 ± 62 mm^3
- Day 22 TV versus control group (No. 1), result in words ([6]; Dunnett's test, significance level 0.05, doses as in Table 1): significantly smaller TVs than control group
- preferred minimum dose that produces the maximum efficacy in the mouse [7]: 50 mg/kg
